Measured values as given in ChEMBL document CHEMBL3399967, “Design and discovery of 2-oxochromene derivatives as liver X receptor β-selective agonists” (Bioorg Med Chem Lett, 2015).

What was measured:
HepG2 [1] = experiment: Ratio of induction of ABCA1 mRNA expression to SREBP-1c mRNA expression in human HepG2 cells at 5 uM; type: functional
HepG2 [2] = experiment: Induction of ABCA1 mRNA expression in human HepG2 cells at 5 uM relative to control; type: functional
HepG2 [3] = experiment: Induction of SREBP-1c mRNA expression in human HepG2 cells at 5 uM relative to control; type: functional
[4] = biological target: T1, Oxysterols receptor LXR-alpha (Homo sapiens, UniProt Q13133); experiment: Agonist activity at Gal4-tagged LXRalpha (unknown origin) expressed in CHOK1 cells after 24 hrs by luciferase reporter gene assay; type: cell-based, CHO-K1
T1 sequence (Q13133 whole entry): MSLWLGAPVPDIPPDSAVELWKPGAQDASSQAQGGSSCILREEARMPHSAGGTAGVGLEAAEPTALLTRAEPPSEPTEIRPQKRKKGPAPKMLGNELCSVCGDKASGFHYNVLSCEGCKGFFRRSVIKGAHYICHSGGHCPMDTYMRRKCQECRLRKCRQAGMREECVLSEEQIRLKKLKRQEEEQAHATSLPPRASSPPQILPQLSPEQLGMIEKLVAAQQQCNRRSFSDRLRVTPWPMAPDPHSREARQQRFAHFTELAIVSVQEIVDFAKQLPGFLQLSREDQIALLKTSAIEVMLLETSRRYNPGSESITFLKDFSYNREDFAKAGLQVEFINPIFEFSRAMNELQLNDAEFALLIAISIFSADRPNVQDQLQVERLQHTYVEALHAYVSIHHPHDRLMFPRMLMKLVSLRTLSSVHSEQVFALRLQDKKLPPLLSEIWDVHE

[5] = biological target: T2, Oxysterols receptor LXR-beta (Homo sapiens, UniProt P55055); experiment: Agonist activity at Gal4-tagged LXRbeta (unknown origin) expressed in CHOK1 cells after 24 hrs by luciferase reporter gene assay; type: cell-based, CHO-K1
T2 sequence (P55055 whole entry): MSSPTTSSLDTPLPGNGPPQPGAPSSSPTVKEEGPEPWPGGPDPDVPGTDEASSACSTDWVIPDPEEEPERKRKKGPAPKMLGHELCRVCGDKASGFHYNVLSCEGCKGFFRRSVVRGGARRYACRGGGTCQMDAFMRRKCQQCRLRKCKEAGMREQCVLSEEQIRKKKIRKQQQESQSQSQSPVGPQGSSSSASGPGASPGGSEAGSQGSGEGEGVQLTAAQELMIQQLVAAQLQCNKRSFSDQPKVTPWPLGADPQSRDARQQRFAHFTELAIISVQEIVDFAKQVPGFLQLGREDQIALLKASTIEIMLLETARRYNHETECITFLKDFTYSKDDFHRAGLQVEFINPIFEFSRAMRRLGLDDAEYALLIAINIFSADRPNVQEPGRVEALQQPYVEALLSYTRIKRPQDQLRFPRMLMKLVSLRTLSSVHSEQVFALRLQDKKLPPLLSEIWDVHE

Hamster [6] = experiment: Effect on Plasma triglyceride level in high-fat-and-cholesterol diet fed Male Bio F1B hamster at 300 mg/kg, po relative to control; type: organism-based; set-up: dose 300 mg/kg, route oral; details: cricetinae, in vivo
Hamster [7] = experiment: Effect on total cholesterol level in high-fat-and-cholesterol diet fed Male Bio F1B hamster plasma at 300 mg/kg, po relative to control; type: functional, Cricetinae
Hamster [8] = experiment: Effect on area of lipid accumulation in high-fat-and-cholesterol diet fed Male Bio F1B hamster aortic arch at 30 mg/kg, po relative to control; type: functional, Cricetinae
Hamster [9] = experiment: Effect on HDL-C level in high-fat-and-cholesterol diet fed Male Bio F1B hamster plasma at 300 mg/kg, po relative to control; type: functional, Cricetinae
Hamster [10] = experiment: Effect on HDL-C level in high-fat-and-cholesterol diet fed Male Bio F1B hamster plasma at 100 mg/kg, po relative to control; type: functional, Cricetinae
Hamster [11] = experiment: Effect on area of lipid accumulation in high-fat-and-cholesterol diet fed Male Bio F1B hamster aortic arch at 300 mg/kg, po relative to control; type: functional, Cricetinae, Pharyngeal arch artery
Hamster [12] = experiment: Effect on total cholesterol level in high-fat-and-cholesterol diet fed Male Bio F1B hamster plasma at 30 mg/kg, po relative to control; type: functional, Cricetinae
Hamster [13] = experiment: Effect on area of lipid accumulation in high-fat-and-cholesterol diet fed Male Bio F1B hamster aortic arch at 100 mg/kg, po relative to control; type: functional, Cricetinae, Pharyngeal arch artery
[14] = Plasma concentration in Golden Syrian hamster at 300 mg/kg, po after 2 hrs; type: ADME, organism-based, Mesocricetus auratus; set-up: dose 300 mg/kg, route oral
[15] = Plasma concentration in Golden Syrian hamster at 300 mg/kg, po after 1 hr; type: ADME, organism-based, Mesocricetus auratus; set-up: dose 300 mg/kg, route oral
Hamster [16] = experiment: Effect on Plasma triglyceride level in high-fat-and-cholesterol diet fed Male Bio F1B hamster at 100 mg/kg, po relative to control; type: organism-based; set-up: dose 100 mg/kg, route oral; details: cricetinae, in vivo
Hamster [17] = experiment: Effect on HDL-C level in high-fat-and-cholesterol diet fed Male Bio F1B hamster plasma at 30 mg/kg, po relative to control; type: functional, Cricetinae
Hamster [18] = experiment: Effect on Plasma triglyceride level in high-fat-and-cholesterol diet fed Male Bio F1B hamster at 30 mg/kg, po relative to control; type: organism-based; set-up: dose 30 mg/kg, route oral; details: cricetinae, in vivo
Hamster [19] = experiment: Effect on total cholesterol level in high-fat-and-cholesterol diet fed Male Bio F1B hamster plasma at 100 mg/kg, po relative to control; type: functional, Cricetinae
[20] = Plasma concentration in Golden Syrian hamster at 300 mg/kg, po after 0.5 hrs; type: ADME, organism-based, Mesocricetus auratus; set-up: dose 300 mg/kg, route oral
Syrian golden hamster = experiment: Plasma concentration in Golden Syrian hamster at 100 mg/kg, po; type: ADME, organism-based, Mesocricetus auratus; set-up: dose 100 mg/kg, route oral; details: in vivo

O=c1cc(C(F)(F)F)c2cc3c4c(c2o1)CCCN4CCC3
Ratio (HepG2 [1]): 2.3
fold change (FC) (HepG2 [2]): 9.1
fold change (FC) (HepG2 [3]): 3.9

CC(C)c1cc(=O)oc2c3c4c(cc12)CCCN4CCC3
Ratio (HepG2 [1]): 3.6
fold change (FC) (HepG2 [2]): 5
fold change (FC) (HepG2 [3]): 1.4

CCN(CC)c1ccc2c(C(F)(F)F)cc(=O)oc2c1
Ratio (HepG2 [1]): 0.4
fold change (FC) (HepG2 [2]): 1.3
fold change (FC) (HepG2 [3]): 3.3

CCCc1cc2c(C(F)(F)F)cc(=O)oc2c(CCC)c1OCCCCN1C(=O)CSC1=O
EC50 ([4]; read-out: EC50): 2.6 µM
EC50 ([5]; read-out: EC50): 1.4 µM

CCCc1cc2c(C(F)(F)F)cc(=O)oc2c(CCC)c1OCCCCN1C(=O)CN(C)C1=O
EC50 ([4]; read-out: EC50): 2.6 µM
EC50 ([5]; read-out: EC50): 1.3 µM

CCCc1cc2c(C(F)(F)F)cc(=O)oc2c(CCC)c1OCCCCN1C(=O)CCC1=O
EC50 ([5]; read-out: EC50): 1.4 µM

CCCc1cc2c(C(F)(F)F)cc(=O)oc2c(CCC)c1OCCCCN1CCOC1=O
EC50 ([5]; read-out: EC50): 2.2 µM

CCCc1cc2c(C(F)(F)F)cc(=O)oc2c(CCC)c1OCCCCN1CCCC1=O
EC50 ([4]; cho-k1): Not Active
EC50 ([5]; cho-k1): Not Active

CCCc1cc2c(C(F)(F)F)cc(=O)oc2c(CCC)c1OCCCCN1C(=O)C(C)N(C)C1=O (centres undefined)
EC50 ([4]; read-out: EC50): 1.7 µM
EC50 ([5]; read-out: EC50): 1.3 µM

CCCc1cc2c(C(F)(F)F)cc(=O)oc2c(CCC)c1OCCCCN1C(=O)N(C)C(C)(C)C1=O
EC50 ([4]; read-out: EC50): 11 µM
EC50 ([5]; read-out: EC50): 4.7 µM

CCCc1cc2c(C(F)(F)F)cc(=O)oc2c(CCC)c1OCCCCN1C(=O)NC(C)C1=O (centres undefined)
EC50 ([4]; read-out: EC50): 1.5 µM
EC50 ([5]; read-out: EC50): 1.3 µM

CCCc1cc2c(C(F)(F)F)cc(=O)oc2c(CCC)c1OCCCCN1C(=O)N(C)C(C)(c2ccccc2)C1=O (centres undefined)
EC50 ([4]; cho-k1): Not Active
EC50 ([5]; cho-k1): Not Active

CCCc1cc2c(C(F)(F)F)cc(=O)oc2c(CCC)c1OCCCCN1C(=O)NC(C)(c2ccccc2)C1=O (centres undefined)
EC50 ([4]; cho-k1): Not Active
EC50 ([5]; read-out: EC50): 5.3 µM

CCCc1cc2c(C(F)(F)F)cc(=O)oc2c(CCC)c1OCCCCN1C(=O)NC(C)(c2ccc(C)cc2)C1=O (centres undefined)
EC50 ([4]; cho-k1): Not Active
EC50 ([5]; read-out: EC50): 2.4 µM

CCCc1cc2c(C(F)(F)F)cc(=O)oc2c(CCC)c1OCCCCN1C(=O)NC(C)(c2ccccc2OC)C1=O (centres undefined)
EC50 ([4]; cho-k1): Not Active
EC50 ([5]; cho-k1): Not Active

CCCc1cc2c(C(F)(F)F)cc(=O)oc2c(CCC)c1OCCCCN1C(=O)NC(C)(c2cccc(OC)c2)C1=O (centres undefined)
EC50 ([4]; cho-k1): Not Active
EC50 ([5]; cho-k1): Not Active

CCCc1cc2c(C(F)(F)F)cc(=O)oc2c(CCC)c1OCCCCN1C(=O)NC(C)(c2ccc(OC)cc2)C1=O (centres undefined)
EC50 ([4]; cho-k1): Not Active
EC50 ([5]; read-out: EC50): 0.96 µM

CCCc1cc2c(C(F)(F)F)cc(=O)oc2c(CCC)c1OCCCCN1C(=O)NC(C)(c2ccc(OC)c(OC)c2)C1=O (centres undefined)
EC50 ([4]; cho-k1): Not Active
EC50 ([5]; cho-k1): Not Active

CCCc1cc2c(C(F)(F)F)cc(=O)oc2c(CCC)c1OCCCCN1C(=O)NC(C)(c2ccc3c(c2)OCO3)C1=O (centres undefined)
EC50 ([5]; read-out: EC50): 1.2 µM

CCCc1cc2c(C(F)(F)F)cc(=O)oc2c(CCC)c1OCCCCN1C(=O)NC(C)(c2ccc(N(C)C)cc2)C1=O (centres undefined)
EC50 ([4]; cho-k1): Not Active
EC50 ([5]; cho-k1): Not Active

CCCc1cc2c(C(F)(F)F)cc(=O)oc2c(CCC)c1OCCCCN1C(=O)NC(C)(c2ccc(C(F)(F)F)cc2)C1=O (centres undefined)
EC50 ([4]; cho-k1): Not Active

CCCc1cc2c(C(F)(F)F)cc(=O)oc2c(CCC)c1OCCCCN1C(=O)NC(C)(c2ccc([N+](=O)[O-])cc2)C1=O (centres undefined)
EC50 ([4]; cho-k1): Not Active
EC50 ([5]; read-out: EC50): 8 µM

CCCc1cc2c(C(F)(F)F)cc(=O)oc2c(CCC)c1OCCCCN1C(=O)NC(C)(c2ccc(C(=O)O)cc2)C1=O (centres undefined)
EC50 ([4]; cho-k1): Not Active
EC50 ([5]; cho-k1): Not Active

CCCc1cc2c(C(F)(F)F)cc(=O)oc2c(CCC)c1OCCCCN1C(=O)NC(C)(c2ccc(O)cc2)C1=O (centres undefined)
EC50 ([4]; cho-k1): Not Active
EC50 ([5]; cho-k1): Not Active

CCCc1c(OCCCCN2C(=O)CN(C)C2=O)ccc2c(C(F)(F)F)cc(=O)oc12
EC50 ([5]; read-out: EC50): 1.3 µM

CCCc1c(OCCCCN2C(=O)NC(C)(c3ccccc3)C2=O)ccc2c(C(F)(F)F)cc(=O)oc12 (centres undefined)
EC50 ([4]; cho-k1): Not Active
EC50 ([5]; read-out: EC50): 2 µM

CCCc1c(OCCCCN2C(=O)NC(C)(c3ccc(OC)cc3)C2=O)ccc2c(C(F)(F)F)cc(=O)oc12 (centres undefined)
Activity (Hamster [6]): 96%
Activity (Hamster [7]): 98%
Activity (Hamster [8]): 119%
Activity (Hamster [9]): 113%
Activity (Hamster [10]): 96%
Activity (Hamster [11]): 56%
Activity (Hamster [12]): 115%
Activity (Hamster [13]): 102%
concentration at 2 h [14]: 59 ng/mL
concentration at 1 h [15]: 53 ng/mL
Activity (Hamster [16]): 131%
Activity (Hamster [17]): 96%
Activity (Hamster [18]): 136%
Activity (Hamster [19]): 101%
concentration at 0.5 h [20]: 50 ng/mL
Cp (Syrian golden hamster): Not Active

CCCc1c(OCCCCN2C(=O)NC(C)(c3ccc(OC)c(OC)c3)C2=O)ccc2c(C(F)(F)F)cc(=O)oc12 (centres undefined)
EC50 ([4]; cho-k1): Not Active
EC50 ([5]; read-out: EC50): 3 µM

CCCc1c(OCCCCN2C(=O)NC(C)(c3ccc4c(c3)OCO4)C2=O)ccc2c(C(F)(F)F)cc(=O)oc12 (centres undefined)
EC50 ([5]; read-out: EC50): 1.1 µM

CCCc1c(OCCCCN2C(=O)NC(C)(c3ccc(C(=O)O)cc3)C2=O)ccc2c(C(F)(F)F)cc(=O)oc12 (centres undefined)
EC50 ([4]; cho-k1): Not Active
EC50 ([5]; cho-k1): Not Active

CCCc1c(OCCCCN2C(=O)NC(C)(c3ccc(O)cc3)C2=O)ccc2c(C(F)(F)F)cc(=O)oc12 (centres undefined)
EC50 ([4]; cho-k1): Not Active

CCCc1c(OCCCN2C(=O)CSC2=O)ccc2c(C(F)(F)F)noc12
EC50 ([4]; read-out: EC50): 1.3 µM
EC50 ([5]; read-out: EC50): 0.69 µM

O=C(O)Cc1cccc(OCCCN(Cc2cccc(C(F)(F)F)c2Cl)CC(c2ccccc2)c2ccccc2)c1
Ratio (HepG2 [1]): 3.1
fold change (FC) (HepG2 [2]): 15
EC50 ([4]; read-out: EC50): 1.3 µM
EC50 ([5]; read-out: EC50): 0.42 µM
fold change (FC) (HepG2 [3]): 4.9
